Laboratory results published in patent US20080276327A1, “Methods and Compositions Related to Delivery of Chemical Compounds to Invertebrate Embryos” (UNIVERSITY OF UTAH RESEARCH FOUNDATION, priority 2004, published 2008).

Tested on: Drosophila embryos
Experiment: DMSO dose-response, development and hatching of Drosophila embryos
Assay type: in vivo
Procedure: Initial studies examined the toxicity of DMSO in Drosophila embryos.
First it was shown that DMSO was not deleterious to normal embryonic development.
Broad dilution series were made of DMSO in PBS. Approximately 50 eggs were placed in each well of a 96 well plate containing these solutions. They were placed at 18° C. or at 25° C. and hatched offspring were counted at the end of embryonic development (36 hours at 18° and 24 hours at 25°). […] 100% of eggs produced normal larvae at concentrations as high as 5% in PBS, pH 7.2. At 7.5% DMSO the percentage declined dramatically to approximately 50% and by 10% DMSO, the percentage hatching was only ˜10%.

Structure (SMILES): C[S+](C)[O-] [DMSO]
- percentage hatching (7.5% DMSO in PBS): Approximately 50%
- percentage hatching (10% DMSO in PBS): ~10%
- eggs that produced normal larvae (DMSO as high as 5% in PBS, pH 7.2): 100%
- embryos in which normal development occurs (concentrations of DMSO as high as 5%): 100%
- concentrations of DMSO at which embryonic development proceeds normally to eclosion (dose-response curves): ≤ 5 % v/v
- percentages surviving at 25° compared with 18° (solutions above 5% DMSO): always less than those kept at 18°
